Measured values reported in ChEMBL document CHEMBL1201862, “PubChem BioAssay data set” (2004).
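Each compound was tested at five concentrations against cells in 96-well plates for 48 hours. At the GI50, growth is halved.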 Activity calls are given as the source filed them. No stated cut-off is given here; in the data, active = GI50 up to about 1.1 µM and inactive = higher.

How the values were obtained:
Experiment in all cases: NCI anticancer screen, dose series, 48 h
A498 = tested on: A498
A549 = tested on: A549
BT-549 = tested on: BT-549
CAKI-1 = tested on: CAKI-1
EKVX = tested on: EKVX
HOP-62 = tested on: HOP-62
IGROV-1 = tested on: IGROV-1
MDA-MB-435 = tested on: MDA-MB-435
MOLT-4 = tested on: MOLT-4
NCI/ADR-RES = tested on: NCI/ADR-RES
OVCAR-4 = tested on: OVCAR-4
RPMI-8226 = tested on: RPMI-8226
SK-MEL-2 = tested on: SK-MEL-2
SK-OV-3 = tested on: SK-OV-3
SNB-75 = tested on: SNB-75
U-251 = tested on: U-251
UACC-257 = tested on: UACC-257
UACC-62 = tested on: UACC-62
UO-31 = tested on: UO-31

Measured: GI50

CCCCc1c(O)nc(Nc2nc3ccccc3[nH]2)[nH]c1=O
inactive: A498 > 100 µM | A549 > 100 µM | BT-549 > 100 µM | CAKI-1 > 100 µM | EKVX > 100 µM | HOP-62 > 100 µM | IGROV-1 > 100 µM | MDA-MB-435 > 100 µM | MOLT-4 > 100 µM | NCI/ADR-RES > 100 µM | OVCAR-4 > 100 µM | RPMI-8226 > 100 µM | SK-MEL-2 > 100 µM | SK-OV-3 > 100 µM | SNB-75 > 100 µM | U-251 69.7 µM | UACC-257 > 100 µM | UACC-62 > 100 µM

CCCCn1c(N)c(-c2nc3ccccc3o2)sc1=S
inactive: A498 31.8 µM | A549 13.6 µM | BT-549 26.3 µM | CAKI-1 13.7 µM | EKVX 21.8 µM | HOP-62 21.5 µM | IGROV-1 21.8 µM | MDA-MB-435 12.6 µM | MOLT-4 43 µM | NCI/ADR-RES 18.2 µM | OVCAR-4 5.81 µM | RPMI-8226 21.7 µM | SK-MEL-2 13.4 µM | SK-OV-3 22.7 µM | U-251 15.9 µM | UACC-257 60.7 µM | UACC-62 11.2 µM | UO-31 20 µM

CC(=O)NC1C(OCc2ccccc2)OC(CO)C(O)C1OCC(=O)N1CCCC1C(=O)N[C@@H](CCC(=O)NCCCCNc1c2ccccc2nc2cccc([N+](=O)[O-])c12)C(N)=O (some centres not stated)
inactive: A498 35.7 µM | A549 16 µM | BT-549 17.9 µM | CAKI-1 > 100 µM | EKVX 43.3 µM | HOP-62 37.9 µM | IGROV-1 14.8 µM | MDA-MB-435 18 µM | MOLT-4 32.5 µM | NCI/ADR-RES > 100 µM | OVCAR-4 40.7 µM | RPMI-8226 2.64 µM | SK-MEL-2 15.4 µM | SK-OV-3 99.1 µM | SNB-75 21.4 µM | U-251 18.9 µM | UO-31 45.2 µM

Cc1ccc(S(=O)(=O)N2CCCN(S(=O)(=O)c3ccc(C)cc3)CCN(S(=O)(=O)c3ccc(C)cc3)CCCSCC2)cc1
inactive: A498 > 100 µM | A549 > 100 µM | BT-549 > 100 µM | EKVX > 100 µM | HOP-62 54.5 µM | IGROV-1 > 100 µM | MDA-MB-435 > 100 µM | MOLT-4 > 100 µM | NCI/ADR-RES > 100 µM | OVCAR-4 > 100 µM | RPMI-8226 > 100 µM | SK-MEL-2 > 100 µM | SK-OV-3 > 100 µM | SNB-75 > 100 µM | U-251 76.7 µM | UACC-62 > 100 µM | UO-31 > 100 µM

O=[N+]([O-])c1ccc(N2N=C(c3c(O)ccc4ccccc34)CC2c2ccc(Cl)cc2)c([N+](=O)[O-])c1 (configuration not stated)
inactive: A498 22.6 µM | A549 15.1 µM | BT-549 32.5 µM | CAKI-1 28.7 µM | HOP-62 24.4 µM | IGROV-1 22.1 µM | MDA-MB-435 25.6 µM | MOLT-4 10.1 µM | NCI/ADR-RES 16.4 µM | OVCAR-4 64.9 µM | RPMI-8226 15.3 µM | SK-MEL-2 17.8 µM | SK-OV-3 27.5 µM | SNB-75 12.2 µM | U-251 30 µM | UACC-257 37.1 µM | UACC-62 7.13 µM | UO-31 17.9 µM

Oc1ccc(Cn2c(-c3ccc(O)c(O)c3)nc3ccccc32)cc1O
inactive: A498 90.2 µM | A549 18.2 µM | BT-549 10.4 µM | CAKI-1 15.5 µM | EKVX 27.9 µM | HOP-62 14 µM | IGROV-1 11.9 µM | MDA-MB-435 12.8 µM | MOLT-4 2.52 µM | NCI/ADR-RES 32.9 µM | OVCAR-4 4.9 µM | RPMI-8226 13.3 µM | SK-MEL-2 18.4 µM | SK-OV-3 18.6 µM | SNB-75 12.1 µM | U-251 5.09 µM | UACC-257 33 µM | UO-31 10.8 µM

CC(=O)N(C(C)=O)c1ncc(-n2nc(-c3ccccc3)cc2-c2ccccc2)c(-c2ccccc2)n1
inactive: A498 > 10 µM | A549 > 10 µM | BT-549 > 10 µM | CAKI-1 > 10 µM | EKVX > 10 µM | HOP-62 > 10 µM | IGROV-1 > 10 µM | MDA-MB-435 3.52 µM | MOLT-4 5.22 µM | NCI/ADR-RES > 10 µM | OVCAR-4 > 10 µM | RPMI-8226 > 10 µM | SK-MEL-2 > 10 µM | SK-OV-3 > 10 µM | SNB-75 > 10 µM | U-251 > 10 µM | UACC-257 > 10 µM | UACC-62 > 10 µM

COc1ccc(C(=O)C(Br)C(Br)C(=O)O)cc1 (configuration not stated)
inactive: A498 > 100 µM | A549 66.5 µM | BT-549 26.5 µM | CAKI-1 38.3 µM | EKVX 53.6 µM | HOP-62 36.6 µM | IGROV-1 51.1 µM | MDA-MB-435 36.1 µM | MOLT-4 14 µM | NCI/ADR-RES 30.1 µM | OVCAR-4 53 µM | RPMI-8226 20.4 µM | SK-MEL-2 39 µM | SK-OV-3 33.7 µM | SNB-75 67.3 µM | U-251 35.3 µM | UACC-257 > 100 µM | UACC-62 47.9 µM

CC(=O)OCCn1c(Cc2ccc([N+](=O)[O-])cc2)nn(C(C)=O)c1=O
inactive: A498 > 100 µM | A549 > 100 µM | BT-549 > 100 µM | CAKI-1 > 100 µM | EKVX > 100 µM | IGROV-1 > 100 µM | MDA-MB-435 > 100 µM | MOLT-4 > 100 µM | NCI/ADR-RES > 100 µM | OVCAR-4 > 100 µM | RPMI-8226 > 100 µM | SK-MEL-2 > 100 µM | SK-OV-3 > 100 µM | U-251 > 100 µM | UACC-257 > 100 µM | UACC-62 > 100 µM | UO-31 > 100 µM

Cc1nc(N)c(N2CCN(S(N)(=O)=O)CC2)c(O)n1
inactive: A498 > 100 µM | A549 > 100 µM | BT-549 > 100 µM | EKVX > 100 µM | HOP-62 > 100 µM | MDA-MB-435 > 100 µM | MOLT-4 > 100 µM | NCI/ADR-RES > 100 µM | OVCAR-4 > 100 µM | RPMI-8226 > 100 µM | SK-MEL-2 > 100 µM | SNB-75 > 100 µM | U-251 > 100 µM | UACC-257 > 100 µM | UO-31 > 100 µM

Cc1cc(C)n(-c2nc(-n3nc(C)cc3C)nc(-n3nc(C)cc3C)n2)n1
inactive: A498 > 100 µM | A549 > 100 µM | BT-549 > 100 µM | CAKI-1 39.2 µM | EKVX 40.2 µM | HOP-62 > 100 µM | IGROV-1 > 100 µM | MDA-MB-435 > 100 µM | MOLT-4 > 100 µM | NCI/ADR-RES > 100 µM | OVCAR-4 > 100 µM | RPMI-8226 93.1 µM | SK-MEL-2 > 100 µM | SK-OV-3 > 100 µM | U-251 > 10 µM | UACC-257 > 100 µM | UACC-62 > 100 µM | UO-31 43.3 µM
